Measured values published in US12421211B2, “Heterocyclic compounds” (Hoffmann-La Roche Inc., priority 2021, dated 2025).
Where a name gives a salt, the structure may show the parent alone.

Each compound was assayed on Acinetobacter baumannii ATCC17961 (assay: Antimicrobial susceptibility testing: 90% growth inhibitory concentration (IC90) determination). Conditions: 90% growth inhibitory concentration, Acinetobacter baumannii ATCC17961, Iso-Sensitest broth, OD 600 nm over 16 h; read-out: ATCC 17961 IC90.
Assay type: cell-based
How it was run: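 Growth inhibition derived in log phase from OD600 kinetics (every 20 minutes, 16h, 35±2° C) of ATCC17961 in Iso-Sensitest medium, inoculum ~5×10^5 CFU/ml. Compounds tested as twofold series, 10 points (e.g. 50 to 0.097 μM final); IC90 and IC50 reported.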

IC90 [nM] | SMILES
108 | Cc1nn(CCOC(F)F)cc1-c1ccc(-c2cnc(C(=O)Nc3ccc(C(=O)N4CCN(C(=O)C5CC[N+](CC(=O)[O-])(CC6CNC6)CC5)CC4)c(Cl)c3)n2C)c(F)c1F (stereo not drawn) [Example N4, cis 2-[1-(azetidin-3-ylmethyl)-4-[4-[2-chloro-4-[[5-[4-[1-[2-(difluoromethoxy)ethyl]-3-methyl-pyrazol-4-yl]-2,3-difluoro-phenyl]-1-methyl-imidazole-2-carbonyl]amino]benzoyl]piperazine-1-carbonyl]piperidin-1-ium-1-yl]acetate]

Same assay, conditions: Acinetobacter baumannii, ATCC17961, 16 h, 90% growth inhibitory concentration, Acinetobacter baumannii ATCC17961, Iso-Sensitest broth, OD 600 nm over 16 h; read-out: ATCC 17961 IC90

SMILES | IC90 [nM]
COCCn1nc(C)c(-c2ccc(-c3cnc(C(=O)Nc4ccc(C(=O)NC5[C@H]6CN(C(=O)N[C@@H]7C[N+](C)(C)C[C@H]7O)C[C@@H]56)c(Cl)c4)n3C)c(F)c2F)c1C (mixture of isomers) [Example F60, rac-(1S,5R)-6-[[2-chloro-4-[[5-[2,3-difluoro-4-[1-(2-methoxyethyl)-3,5-dimethyl-pyrazol-4-yl]phenyl]-1-methyl-imidazole-2-carbonyl]amino]benzoyl]amino]-N-[(3R,4R)-4-hydroxy-1,1-dimethyl-pyrrolidin-1-ium-3-yl]-3-azabicyclo[3.1.0]hexane-3-carboxamide; formate] | 150
COCCn1nc(C)c(-c2ccc(-c3cnc(C(=O)Nc4ccc(C(=O)N[C@H]5[C@@H]6CN(C(=O)[C@@H]7C[C@@H](O)C[N+]7(C)C)C[C@@H]65)c(Cl)c4)n3C)c(F)c2F)c1C [Example D38, N-[3-chloro-4-[[(1R,5S)-3-[(2S,4R)-4-hydroxy-1,1-dimethyl-pyrrolidin-1-ium-2-carbonyl]-3-azabicyclo[3.10]hexan-6-yl]carbamoyl]phenyl]-5-[2,3-difluoro-4-[1-(2-methoxyethyl)-3,5-dimethyl-pyrazol-4-yl]phenyl]-1-methyl-imidazole-2-carboxamide; formate] | 150
Cc1n[nH]cc1-c1ccc(-c2cnc(C(=O)Nc3ccc(C(=O)N4CCN(C(=O)CN(C)C)CC4)c(Cl)c3)n2C)cc1 [Example E15, N-[3-chloro-4-[4-[2-(dimethylamino)acetyl]piperazine-1-carbonyl]phenyl]-1-methyl-5-[4-(3-methyl-1H-pyrazol-4-yl)phenyl]imidazole-2-carboxamide; formic acid] | 180
COCCn1ncc(-c2ccc(-c3cnc(C(=O)Nc4ccc(C(=O)N5CCN(C(=O)C6(OC)CCNCC6)CC5)c(Cl)c4)n3C)c(F)c2F)c1C [Example D44, N-[3-chloro-4-[4-(4-methoxypiperidine-4-carbonyl)piperazine-1-carbonyl]phenyl]-5-[2,3-difluoro-4-[1-(2-methoxyethyl)-5-methyl-pyrazol-4-yl]phenyl]-1-methyl-imidazole-2-carboxamide] | 160

Continued, values first:

IC90 [nM] | SMILES
760 | Cn1c(-c2ccc(-c3cn[nH]c3C3=CCOCC3)c(F)c2F)cnc1C(=O)Nc1ccc(C(=O)N2CCN(C(=O)C3CC[N+](C)(C)CC3)CC2)c(Cl)c1 [Example I7, N-[3-chloro-4-[4-(1,1-dimethylpiperidin-1-ium-4-carbonyl)piperazine-1-carbonyl]phenyl]-5-[4-[5-(3,6-dihydro-2H-pyran-4-yl)-1H-pyrazol-4-yl]-2,3-difluoro-phenyl]-1-methyl-imidazole-2-carboxamide;formate]
290 | COCCn1cc(-c2ccc(-c3cnc(C(=O)Nc4ccc(C(=O)N5CCN(C(=O)C6CCNCC6)CC5)c(Cl)c4)n3C)c(F)c2F)cn1 [Example E21, N-[3-chloro-4-[4-(piperidine-4-carbonyl)piperazine-1-carbonyl]phenyl]-5-[2,3-difluoro-4-[1-(2-methoxyethyl)pyrazol-4-yl]phenyl]-1-methyl-imidazole-2-carboxamide]
250 | Cc1cc(N)cnc1-c1ccc(-c2cnc(C(=O)Nc3ccc(C(=O)N4CCN(C(=O)C5CC[N+](C)(C)CC5)CC4)c(Cl)c3)n2C)c(F)c1F [Example F64, 5-[4-(5-amino-3-methyl-2-pyridyl)-2,3-difluoro-phenyl]-N-[3-chloro-4-[4-(1,1-dimethylpiperidin-1-ium-4-carbonyl)piperazine-1-carbonyl]phenyl]-1-methyl-imidazole-2-carboxamide; formate]
67 | COCCn1ncc(-c2ccc(-c3cnc(C(=O)Nc4ccc(C(=O)N5CCN(C(=O)C6CC[N+](C)(C)CC6)CC5)c(Cl)c4)n3C)c(F)c2F)c1Cl [Example F31, N-[3-chloro-4-[4-(1,1-dimethylpiperidin-1-ium-4-carbonyl)piperazine-1-carbonyl]phenyl]-5-[4-[5-chloro-1-(2-methoxyethyl)pyrazol-4-yl]-2,3-difluoro-phenyl]-1-methyl-imidazole-2-carboxamide; formate]
140 | Cc1nn(CC(=O)Nc2ccccc2F)cc1-c1ccc(-c2cnc(C(=O)Nc3ccc(C(=O)N4CCN(C(=O)C5CC[N+](C)(C)CC5)CC4)c(Cl)c3)n2C)c(F)c1F [Example G6, N-[3-chloro-4-[4-(1,1-dimethylpiperidin-1-ium-4-carbonyl)piperazine-1-carbonyl]phenyl]-5-[2,3-difluoro-4-[1-[2-(2-fluoroanilino)-2-oxo-ethyl]-3-methyl-pyrazol-4-yl]phenyl]-1-methyl-imidazole-2-carboxamide; formate]
540 | Cc1nn(CCNC(=O)N2CCCC2)cc1-c1ccc(-c2cnc(C(=O)Nc3ccc(C(=O)N4CCN(C(=O)C5CC[N+](C)(C)CC5)CC4)c(Cl)c3)n2C)c(F)c1F [Example H8, N-[3-chloro-4-[4-(1,1-dimethylpiperidin-1-ium-4-carbonyl)piperazine-1-carbonyl]phenyl]-5-[2,3-difluoro-4-[3-methyl-1-[2-(pyrrolidine-1-carbonylamino)ethyl]pyrazol-4-yl]phenyl]-1-methyl-imidazole-2-carboxamide; formate]
1400 | COCCn1cc(-c2ccc(-c3cnc(C(=O)Nc4ccc(C(=O)N5CCN(C(=O)C6CC[N+](C)(C)CC6)CC5)c(Cl)c4)n3C)c(F)c2F)c(N)n1 [Example F26, 5-[4-[3-amino-1-(2-methoxyethyl)pyrazol-4-yl]-2,3-difluoro-phenyl]-N-[3-chloro-4-[4-(1,1-dimethylpiperidin-1-ium-4-carbonyl)piperazine-1-carbonyl]phenyl]-1-methyl-imidazole-2-carboxamide; formate]
52 | COCCn1ncc(-c2ccc(-c3cnc(C(=O)Nc4ccc(C(=O)N5CCN(C(=O)CN(C)C)CC5)c(Cl)c4)n3C)c(F)c2F)c1C [Example D32, N-[3-chloro-4-[4-[2-(dimethylamino)acetyl]piperazine-1-carbonyl]phenyl]-5-[2,3-difluoro-4-[1-(2-methoxyethyl)-5-methyl-pyrazol-4-yl]phenyl]-1-methyl-imidazole-2-carboxamide; 2,2,2-trifluoroacetic acid]
710 | Cc1nn(CC(=O)Nc2cn[nH]c2)cc1-c1ccc(-c2cnc(C(=O)Nc3ccc(C(=O)N4CCN(C(=O)C5CC[N+](C)(C)CC5)CC4)c(Cl)c3)n2C)c(F)c1F [Example G11, N-[3-chloro-4-[4-(1,1-dimethylpiperidin-1-ium-4-carbonyl)piperazine-1-carbonyl]phenyl]-5-[2,3-difluoro-4-[3-methyl-1-[2-oxo-2-(1H-pyrazol-4-ylamino)ethyl]pyrazol-4-yl]phenyl]-1-methyl-imidazole-2-carboxamide; formate]
88 | Cc1n[nH]cc1-c1ccc(-c2cnc(C(=O)Nc3ccc(C(=O)N4CCN(C(=O)[C@@H]5C[C@@H](O)CN5)CC4)c(Cl)c3)n2C)c(F)c1F [Example D36, N-[3-chloro-4-[4-[(2S,4R)-4-hydroxypyrrolidine-2-carbonyl]piperazine-1-carbonyl]phenyl]-5-[2,3-difluoro-4-(3-methyl-1H-pyrazol-4-yl)phenyl]-1-methyl-imidazole-2-carboxamide]

Same assay, conditions: Acinetobacter baumannii, ATCC17961, 16 h, read-out: ATCC 17961 IC90

SMILES | IC90 [nM]
COCCn1nc(C)c(-c2ccc(-c3cnc(C(=O)Nc4ccc(C(=O)N5CCN(C(=O)C6CC[N+](C)(CC(N)=O)CC6)CC5)c(Cl)c4)n3C)cc2)c1C (stereo not shown) [Example B10, N-[4-[4-[1-(2-amino-2-oxo-ethyl)-1-methyl-piperidin-1-ium-4-carbonyl]piperazine-1-carbonyl]-3-chloro-phenyl]-5-[4-[1-(2-methoxyethyl)-3,5-dimethyl-pyrazol-4-yl]phenyl]-1-methyl-imidazole-2-carboxamide; formate] | 200
COCCn1cc(-c2ccc(-c3cnc(C(=O)Nc4ccc(C(=O)N5CCN(C(=O)[C@H]6CC[N@+](CC(=O)O)(CC7CNC7)CC6)CC5)c(C)c4)n3C)cc2F)c(C)n1 [Example O9, cis 2-[1-(azetidin-3-ylmethyl)-4-[4-[4-[[5-[3-fluoro-4-[1-(2-methoxyethyl)-3-methyl-pyrazol-4-yl]phenyl]-1-methyl-imidazole-2-carbonyl]amino]-2-methyl-benzoyl]piperazine-1-carbonyl]piperidin-1-ium-1-yl]acetic acid formate] | 284
COCCn1ncc(-c2ccc(-c3cnc(C(=O)Nc4ccc(C(=O)N5CCC(N(C)C(=O)C6CC[N+](CC(=O)O)(CC7CNC7)CC6)CC5)c(Cl)c4)n3C)c(F)c2F)c1C (stereo not shown) [Example O1, 2-[1-(azetidin-3-ylmethyl)-4-[[1-[2-chloro-4-[[5-[2,3-difluoro-4-[1-(2-methoxyethyl)-5-methyl-pyrazol-4-yl]phenyl]-1-methyl-imidazole-2-carbonyl]amino]benzoyl]-4-piperidyl]-methyl-carbamoyl]piperidin-1-ium-1-yl]acetic acid formate] | 354
COCCn1ncc(-c2ccc(-c3cnc(C(=O)Nc4ccc(C(=O)N5CCN(C(=O)C6CC[N+](C)(CCO)CC6)CC5)c(Cl)c4)n3C)c(F)c2F)c1C (stereo not shown) [Example B12, N-[3-chloro-4-[4-[1-(2-hydroxyethyl)-1-methyl-piperidin-1-ium-4-carbonyl]piperazine-1-carbonyl]phenyl]-5-[2,3-difluoro-4-[1-(2-methoxyethyl)-5-methyl-pyrazol-4-yl]phenyl]-1-methyl-imidazole-2-carboxamide; formate] | 110
